The text below walks through data of patent US20210139497A1, “THIENOCYCLIC COMPOUND AND SYNTHESIS METHOD THEREFOR AND APPLICATION THEREOF” (SHANGHAI YUYAO BIOTECH LTD., priority 2017, published 2021).

A value given as a limit tells only on which side of the number the result lay.

The subject of series [1] is mouse models of colon cancer, breast cancer, pancreatic cancer and sarcoma. The following applies: Oncoimmunology 2017; cited from earlier work.
Series [2] relates to mouse colon cancer cells CT26. As to the kind of experiment: CT26 subcutaneous tumor-bearing model, Balb/c mice. The settings on record: female Balb/c mice, 75 mg/kg/day; for Inhibitory effect on growth of subcutaneous CT26 colon cancer: 14 days, vs negative control, FIG. 3. It counts as in vivo. As for the experimental part: 2×10^6 mouse colon cancer cells CT26 were subcutaneously injected into right side of each mouse's back (female Balb/c mouse, 6-8 weeks). The length and width of subcutaneous tumors in the back of mice were measured using vernier calipers, and tumor volume (mm^3)=(length(mm)×width(mm)×width(mm)×n)/6 was calculated. […] The volume of subcutaneous tumors on the back of mice was measured and counted twice a week. Continuous administrated for a period of 14 days and the changes of tumor volumes were recorded.
(§1) Mouse colon cancer cells MC38, pancreatic cancer cells Pan02, breast cancer cells 4T1, prostate cancer cells RM-1 and colon cancer cells CT26 were cultivated to required amount. Then, cells at a cell density of 5×10^5-2×10^6 were subcutaneously injected into right side of the back of selected female C57BL/6 mice aging 6-8 weeks (MC38, Pan02), male C57BL/6 mice aging 6-8 weeks (RM-1), female Balb/c mice aging 6-8 weeks (4T1, CT26) and female Balb/c nude mice aging 6-8 weeks (CT26). The length and width of subcutaneous tumors in the backs of mice were measured using vernier calipers, and tumor volume(mm^3)=(length(mm)×width(mm)×width(mm)×n)/6 was calculated. […] The volume of subcutaneous tumors on the back of mice was measured and counted 2-4 times a week. Continuous administrated for 12-22 days and the changes of tumor volumes were recorded.

The subject of series [3] is prostate cancer cells RM-1. As to the kind of experiment: RM-1 subcutaneous tumor-bearing model, C57BL/6 mice. It counts as in vivo, mouse. The following applies: male C57BL/6 mice, 75 mg/kg/day, 12-22 days, FIG. 4.
Text: as §1

Series [4] concerns mouse colon cancer cells MC38. Put plainly: MC38 subcutaneous tumor-bearing model, C57BL/6 mice. The format is in vivo. The following applies: female C57BL/6 mice, 75 mg/kg/day, 12-22 days, FIG. 4.
Text: as §1

Series [5] in a line: Cytotoxicity evaluation (CCK8), CT26. The settings on record: mouse, CT26 intestinal cancer cells.
Experimental: (§6) Cells with a density of 2000-8000 cells per 100 μL medium were seeded in 96-well plates (Falcon, CA) and incubated for 24 hours, then treated with drugs having different concentration gradient (at least 4 replicates per concentration) and incubated at 37° C. in 5% CO2 incubator for 72 hours. Then cell viability was detected by CCK8 method. That is to say, add 10 μL CCK8 to each well and incubate for 0.33-2 h, and the OD values are read by microplate reader at 450 nm. The inhibition rate on cell survival of compounds with each concentration were calculated.
(§7) Inhibition rate on cell survival=(OD value of groups with each concentration/OD
(§8) value of control group)×100%±standard deviation.
(§9) The IC50 of drugs were calculated using GraphPad Prism 5.0.
A short description of series [6]: Cytotoxicity evaluation (CCK8), MOSJ. The settings on record: mouse, MOSJ osteosarcoma cells.
Experimental: as §6, §7, §8, §9
Series [7] in a line: Cytotoxicity evaluation (CCK8), PANC02. The settings on record: mouse, PANC02 pancreatic cancer cells.
Experimental: as §6, §7, §8, §9
For series [8], the target named is T1, human prostaglandin E2 receptor EP1 subtype (Homo sapiens, UniProt P34995).
T1 construct: expressed in transfected cells; host or cells: CHO-K1-Gα16
T1 sequence (P34995 1-402): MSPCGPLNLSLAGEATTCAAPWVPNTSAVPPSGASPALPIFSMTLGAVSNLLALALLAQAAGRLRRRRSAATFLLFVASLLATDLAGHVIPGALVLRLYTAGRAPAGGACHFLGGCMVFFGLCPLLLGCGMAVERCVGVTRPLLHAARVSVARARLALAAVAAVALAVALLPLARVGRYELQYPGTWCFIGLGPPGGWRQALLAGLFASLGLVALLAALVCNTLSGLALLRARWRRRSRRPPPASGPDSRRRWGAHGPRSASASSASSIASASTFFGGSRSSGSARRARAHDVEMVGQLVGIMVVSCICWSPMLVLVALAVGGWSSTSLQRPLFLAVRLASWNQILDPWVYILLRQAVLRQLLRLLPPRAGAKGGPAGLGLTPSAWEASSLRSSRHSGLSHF
As to the kind of experiment: Calcium flux of human prostaglandin E2 receptor EP1 subtype. The format is cell-based. The following applies: CHO-K1-Gα16 cells overexpressing human EP1, activated by prostaglandin E2; read-out: hEP1 Ca^2+ IC50. The method, then: (§2) CHO-K1-Gα16 cells at the logarithmic growth phase were transfected with human prostaglandin E2 Receptor subtypes EP1, EP2 or EP3 overexpressing vector by Lipofectamine 2000, then seeded in a 96-well plate (Falcon, CA) at a density of 20000 cells per 100 μL culture medium for overnight culture. On the second day, every single well were added with 100 μL calcium 5 detection reagents (Molecular Devices) and incubated in incubator at 37° C., 5% CO2 for 45 minutes. The compounds were diluted with HBSS detection buffer, then were added to 96-well plates. After 20 min incubation at room temperature in the dark, prostaglandin E2 at certain concentration was used to activate calcium flux of cells for detection (Flexstation 3, MD, CA).
(§3) Calculate the IC50 of the compounds of the invention in inhibiting the calcium flux of human EP1, EP2, and EP3 receptor (i.e. the concentration of drugs at which the intracellular Ca^2+ flux being inhibited by half after overexpressing human EP1, EP2, and EP3 receptors in CHO-K1-Gα16 cells). The IC50 of the drugs were calculated using GraphPad Prism 5.

The target of series [9] is T2, human prostaglandin E2 receptor EP2 subtype (Homo sapiens, UniProt P43116).
T2 construct: expressed in transfected cells; host or cells: CHO-K1-Gα16
T2 sequence (P43116 whole entry): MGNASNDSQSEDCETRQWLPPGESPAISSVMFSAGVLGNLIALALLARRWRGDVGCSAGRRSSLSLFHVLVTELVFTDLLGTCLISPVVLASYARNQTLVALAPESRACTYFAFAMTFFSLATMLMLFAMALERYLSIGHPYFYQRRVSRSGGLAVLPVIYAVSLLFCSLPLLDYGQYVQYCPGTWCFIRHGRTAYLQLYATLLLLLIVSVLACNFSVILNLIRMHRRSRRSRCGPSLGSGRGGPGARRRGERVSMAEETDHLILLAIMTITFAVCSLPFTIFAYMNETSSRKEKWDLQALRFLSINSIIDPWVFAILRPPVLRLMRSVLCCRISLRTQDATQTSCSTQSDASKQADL
Put plainly: Calcium flux of human prostaglandin E2 receptor EP2 subtype. The following applies: CHO-K1-Gα16 cells overexpressing human EP2, activated by prostaglandin E2; read-out: hEP2 Ca^2+ IC50. It counts as cell-based. The method, then:
as §2, §3
(A change in cytosolic calcium serves as a functional read-out for many receptors and channels.)

Series [10] concerns colon cancer cells CT26. Put plainly: CT26 subcutaneous tumor-bearing model, Balb/c nude mice. The format is in vivo, mouse. The settings on record: female Balb/c nude mice, 75 mg/kg/day.
Text: as §1

The test system of series [11] is breast cancer cells 4T1. As to the kind of experiment: 4T1 subcutaneous tumor-bearing model, Balb/c mice. It counts as in vivo, mouse. The settings on record: female Balb/c mice, 75 mg/kg/day, 12-22 days, FIG. 4.
Text: as §1

In series [12] the target is T3, human prostaglandin E2 receptor EP3 subtype (Homo sapiens, UniProt P43115).
T3 construct: expressed in transfected cells; host or cells: CHO-K1-Gα16
T3 sequence (P43115 1-390): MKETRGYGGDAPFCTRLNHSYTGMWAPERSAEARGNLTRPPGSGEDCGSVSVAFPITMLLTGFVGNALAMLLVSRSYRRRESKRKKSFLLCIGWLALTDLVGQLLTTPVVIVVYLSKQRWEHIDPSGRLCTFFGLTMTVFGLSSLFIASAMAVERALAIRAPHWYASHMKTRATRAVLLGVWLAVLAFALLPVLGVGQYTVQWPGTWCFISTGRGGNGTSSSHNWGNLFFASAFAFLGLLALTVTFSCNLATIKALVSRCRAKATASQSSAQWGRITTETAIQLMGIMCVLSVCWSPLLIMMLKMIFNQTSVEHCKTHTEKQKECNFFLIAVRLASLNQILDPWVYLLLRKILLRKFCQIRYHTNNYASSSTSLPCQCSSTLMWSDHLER
Put plainly: Calcium flux of human prostaglandin E2 receptor EP3 subtype. It counts as cell-based. The settings on record: CHO-K1-Gα16 cells overexpressing human EP3, activated by prostaglandin E2; read-out: hEP3 Ca^2+ IC50. As for the experimental part:
as §2, §3

Series [13] is described as follows: Cytotoxicity evaluation (CCK8), 293. The settings on record: human.
For series [14], the system named is pancreatic cancer cells Pan02. As to the kind of experiment: Pan02 subcutaneous tumor-bearing model, C57BL/6 mice. The format is in vivo, mouse. The following applies: female C57BL/6 mice, 75 mg/kg/day, 12-22 days, FIG. 4.
Text: as §1

A short description of series [15]: Cytotoxicity evaluation (CCK8), EMT-6. The settings on record: mouse, EMT-6 breast cancer cells.
Experimental: as §6, §7, §8, §9
A short description of series [16]: Cytotoxicity evaluation (CCK8), LLC. The following applies: mouse, LLC lung cancer cells.
Experimental: as §6, §7, §8, §9
Series [17] deals with T4, mouse PGE2 receptor EP4 subtype (mEP4) (Mus musculus, UniProt P32240).
T4 construct: expressed in transfected cells; host or cells: CHO-K1-Gα16
T4 sequence (P32240 whole entry): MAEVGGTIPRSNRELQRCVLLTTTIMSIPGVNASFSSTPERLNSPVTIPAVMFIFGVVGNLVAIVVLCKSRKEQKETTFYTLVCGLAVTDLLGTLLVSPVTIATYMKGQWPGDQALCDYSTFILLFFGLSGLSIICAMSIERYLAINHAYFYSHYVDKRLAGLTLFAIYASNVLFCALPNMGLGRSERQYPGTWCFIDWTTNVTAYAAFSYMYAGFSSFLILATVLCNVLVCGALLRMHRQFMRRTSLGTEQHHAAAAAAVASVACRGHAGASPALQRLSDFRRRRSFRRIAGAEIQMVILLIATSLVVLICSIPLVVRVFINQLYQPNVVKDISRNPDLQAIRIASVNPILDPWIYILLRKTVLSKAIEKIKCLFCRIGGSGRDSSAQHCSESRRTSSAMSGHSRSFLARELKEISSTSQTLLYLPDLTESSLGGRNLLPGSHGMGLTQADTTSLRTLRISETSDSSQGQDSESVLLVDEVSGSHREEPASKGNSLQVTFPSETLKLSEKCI
Put plainly: Calcium flux of mouse prostaglandin E2 receptor EP4 subtype. The format is cell-based. The settings on record: CHO-K1-Gα16 cells overexpressing mEP4, calcium flux activated by prostaglandin E2; read-out: mEP4 Ca^2+ IC50. As for the experimental part:
(§4) CHO-K1-Gα16 cells at the logarithmic growth phase were transfected with EP4 overexpressing vector by Lipofectamine 2000 and then seeded in a 96-well plate (Falcon, CA) and cultured at 20000 cells per 100 μL culture medium overnight. On the second day, every single well were added with 100 μL calcium 5 detection reagents (Molecular Devices) and incubated in incubator at 37° C., 5% CO2 for 45 minutes. The compounds were diluted in HBSS detection buffer, then added to 96-well plates. After incubated for 20 min at room temperature away from light, certain concentration of prostaglandin E2 was used to activate calcium flux of cells for detection (Flexstation 3, MD, CA).
(§5) Calculate the IC50 of the compounds of the invention in inhibiting the calcium flux of human PGE2 receptor EP4 subtype (hEP4) and mouse PGE2 receptor EP4 subtype (mEP4) (i.e. the concentration of drugs at which the intracellular Ca^2+ flux is inhibited by half after overexpressing hEP4 and mEP4 receptors in CHO-K1-Gα16 cells). The IC50 of the drugs were calculated using GraphPad Prism 5.

In series [18] the target is T5, human PGE2 receptor EP4 subtype (hEP4) (Homo sapiens, UniProt P35408).
T5 construct: expressed in transfected cells; host or cells: CHO-K1-Gα16
T5 sequence (P35408 whole entry): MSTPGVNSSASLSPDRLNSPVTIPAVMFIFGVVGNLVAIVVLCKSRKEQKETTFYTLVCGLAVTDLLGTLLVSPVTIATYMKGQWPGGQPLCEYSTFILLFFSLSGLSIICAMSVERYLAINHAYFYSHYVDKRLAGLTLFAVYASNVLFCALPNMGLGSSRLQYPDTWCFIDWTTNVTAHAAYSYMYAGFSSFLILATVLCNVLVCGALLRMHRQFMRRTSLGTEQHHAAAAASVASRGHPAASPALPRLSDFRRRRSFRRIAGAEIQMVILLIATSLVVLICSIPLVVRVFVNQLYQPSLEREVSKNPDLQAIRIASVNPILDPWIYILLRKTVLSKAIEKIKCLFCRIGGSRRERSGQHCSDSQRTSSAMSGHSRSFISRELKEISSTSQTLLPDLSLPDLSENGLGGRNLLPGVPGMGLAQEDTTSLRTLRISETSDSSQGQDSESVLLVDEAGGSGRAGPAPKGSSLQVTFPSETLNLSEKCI
Put plainly: Calcium flux of human prostaglandin E2 receptor EP4 subtype. The settings on record: CHO-K1-Gα16 cells overexpressing hEP4, calcium flux activated by prostaglandin E2; read-out: hEP4 Ca^2+ IC50. The format is cell-based. As for the experimental part: as §4, §5

Turning to `C[C@H](NC(=O)c1c(C(F)F)nn(C)c1Oc1cccc(C(F)(F)F)c1)c1ccc(C(=O)O)cc1` [Compound E7046, reference compound], the “Inhibitory effects in mouse tumor models” value in series [1] is reported as “good inhibitory effects”. Further, the “Inhibitory effect on growth of subcutaneous CT26 colon cancer” value (from here on “Inhibitory effect on growth”) in [2] was “comparable with that of E7046”.

The IC50 is the point on the concentration scale where inhibition reaches its midpoint. In the case of `C[C@H](NC(=O)c1c(Cc2ccc(F)cc2)sc2c1CCOC2)c1ccc(C(=O)O)cc1` [YJ114, (S)-4-(1-(2-(4-fluorobenzyl)-5,7-dihydro-4H-thieno[2,3-c]pyran-3-carboxamido)ethyl)benzoic Acid], in series [3], the “Inhibition of growth of prostate cancer cells RM-1 in subcutaneous tumor-bearing mice” value is listed as “can efficiently inhibit the growth”. Further, the “Inhibition of growth of colon cancer cells MC38 in subcutaneous tumor-bearing mice” value in [4] was “can efficiently inhibit the growth”. In addition, the IC50 at 72 h in series [5], in series [6], in series [7], in series [13], in [15] and in series [16] was over 100 µM throughout. Besides, the IC50 in [8], in series [9] and in series [12] was over 10 µM throughout. Moreover, the “Inhibition of growth of colon cancer cells CT26 in subcutaneous tumor-bearing mice” value in series [2] (12 to 22-day administration (Example 6)) is on record as “can efficiently inhibit the growth”. Moreover, the “Inhibitory effect on growth” value in series [2] was “able to suppress the growth”. Also, in series [10], the “Inhibition of CT26 tumor growth in Balb/c nude mice with immune system deficiency” value is “can not inhibit the tumor growth”. Moreover, the “Inhibition of growth of breast cancer cells 4T1 in subcutaneous tumor-bearing mice” value in series [11] is recorded as “can efficiently inhibit the growth”. For the same molecule, the “Inhibition of growth of pancreatic cancer cells Pan02 in subcutaneous tumor-bearing mice” value in [14] was “can efficiently inhibit the growth”.

Turning to `C[C@H](NC(=O)c1c(Cc2cccc(C(F)(F)F)c2)sc2c1CCOC2)c1ccc(C(=O)O)cc1` [YJ116, (S)-4-(1-(2-(3-(trifluoromethyl)benzyl)-5,7-dihydro-4H-thieno[2,3-c]pyran-3-carboxamido)ethyl)benzoic Acid], the 50% inhibitory concentration (IC50) was under 0.1 µM in series [17]; over 10 µM in [8]; over 10 µM in [9]; over 10 µM in series [12]; under 0.1 µM in series [18]. In addition, the half-inhibitory concentration (IC50) at 72 h in series [5], in series [6], in series [7], in series [13], in series [15] and in [16] was over 100 µM in each case. Besides, in series [2], the “Inhibitory effect on growth” value is “able to suppress the growth”.
